Molecular target: T1, ligand binding domain of human RORγ (A262-S507) (Homo sapiens, UniProt P51449)
T1 construct: made in house; host or cells: E. coli
T1 sequence (P51449 262-507): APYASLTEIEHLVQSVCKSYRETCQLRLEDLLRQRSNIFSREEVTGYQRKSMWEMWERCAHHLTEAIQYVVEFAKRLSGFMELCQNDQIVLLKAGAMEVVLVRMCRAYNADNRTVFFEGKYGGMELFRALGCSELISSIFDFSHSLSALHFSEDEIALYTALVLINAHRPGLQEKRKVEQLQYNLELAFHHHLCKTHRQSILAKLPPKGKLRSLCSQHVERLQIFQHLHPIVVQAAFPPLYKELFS
Assay: General RORγ SPA binding assay (competition with [3H]25-hydroxycholesterol)
Settings: RORγ SPA binding assay, inhibition of [3H]25-hydroxycholesterol binding; read-out: IC50
Method in brief: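 N-terminally His-tagged protein was expressed in E. coli and nickel-purified. Then 50 nM protein was preincubated with compound for 15 min at room temperature in PBS with 0.5% fatty acid free BSA, followed by radioligand for 15 min and copper His-tag SPA beads for 30 min. IC50 came from percent inhibition of binding.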

SMILES | IC50
Cc1ncc(C(=O)NOc2cccc(C(F)(F)F)c2)c(C2CCN(C(=O)Cc3c(F)cccc3F)CC2)n1 [Compound H1, 4-{1-[(2,6-Difluorophenyl)acetyl]piperidin-4-yl}-2-methyl-N-{[3-(trifluoromethyl)-phenyl]oxy}pyrimidine-5-carboxamide] | 327 nM
Cc1cc(C)cc(ONC(=O)c2cnc(C)nc2C2CCN(C(=O)Cc3c(F)cccc3F)CC2)c1 [Compound H2, 4-(1-(2-(2,6-difluorophenyl)acetyl)piperidin-4-yl)-N-(3,5-dimethylphenoxy)-2-methylpyrimidine-5-carboxamide] | 49 nM
Cc1ncc(C(=O)NOc2cccc(OC(F)(F)F)c2)c(C2CCN(C(=O)Cc3c(F)cccc3F)CC2)n1 [Compound H4, 4-(1-(2-(2,6-difluorophenyl)acetyl)piperidin-4-yl)-2-methyl-N-(3-(trifluoromethoxy)phenoxy)pyrimidine-5-carboxamide] | 294 nM
Cc1nc(C)c(C(=O)NOc2cccc(Cl)c2)c(C2CCN(C(=O)Cc3c(F)cccc3F)CC2)n1 [Compound H5, N-(3-chlorophenoxy)-4-(1-(2-(2,6-difluorophenyl)acetyl)piperidin-4-yl)-2,6-dimethylpyrimidine-5-carboxamide] | 503 nM
Cc1ncc(C(=O)NOc2ccccc2)c(C2CCN(C(=O)Cc3c(F)cccc3F)CC2)n1 [Compound H7, 4-(1-(2-(2,6-difluorophenyl)acetyl)piperidin-4-yl)-2-methyl-N-phenoxypyrimidine-5-carboxamide] | 1750 nM
Cc1nc(NCc2ccnc(C(F)(F)F)c2)c(C(=O)NCc2ccnc(C(F)(F)F)c2)c(C2CCN(C(=O)Cc3c(F)cccc3F)CC2)n1 [Compound I2, 4-{1-[(2,6-Difluorophenyl)acetyl]piperidin-4-yl}-2-methyl-N-{[2-(trifluoromethyl)pyridin-4-yl]methyl}-6-({[2-(trifluoromethyl)pyridin-4-yl]methyl}amino)pyrimidine-5-carboxamide] | 71 nM
Cc1cc(C)cc(CNC(=O)c2c(C3CCN(C(=O)Cc4c(F)cccc4F)CC3)nc(C)[nH]c2=O)c1 [Compound I3, 4-(1-(2-(2,6-Difluorophenyl)acetyl)piperidin-4-yl)-N-(3,5-dimethylbenzyl)-2-methyl-6-oxo-1,6-dihydropyrimidine-5-carboxamide] | 10.7 nM
Cc1nc(C2CCN(C(=O)Cc3c(F)cccc3F)CC2)c(C(=O)NCc2ccnc(C(F)(F)F)c2)c(=O)[nH]1 [Compound I5, 4-(1-(2-(2,6-difluorophenyl)acetyl)piperidin-4-yl)-2-methyl-6-oxo-N-((2-(trifluoromethyl)pyridin-4-yl)methyl)-1,6-dihydropyrimidine-5-carboxamide] | 69.3 nM

More lines, in order of falling IC50, values ahead:

IC50 | SMILES
1630 nM | Cc1ncc(C(=O)NOc2cc(F)cc(Cl)c2)c(C2CCN(C(=O)Cc3c(F)cccc3F)CC2)n1 [Compound H6, N-(3-chloro-5-fluorophenoxy)-4-(1-(2-(2,6-difluorophenyl)acetyl)piperidin-4-yl)-2-methylpyrimidine-5-carboxamide]
84 nM | Cc1ncc(C(=O)NOc2cccc(Cl)c2)c(C2CCN(C(=O)Cc3c(F)cccc3F)CC2)n1 [Compound H3, N-(3-chlorophenoxy)-4-(1-(2-(2,6-difluorophenyl)acetyl)piperidin-4-yl)-2-methylpyrimidine-5-carboxamide]
40.3 nM | Cc1nc(C2CCN(C(=O)Cc3c(F)cccc3F)CC2)c(C(=O)NCc2cccc(C(F)(F)F)n2)c(=O)[nH]1 [Compound I1, 4-{1-[(2,6-Difluorophenyl)acetyl]piperidin-4-yl}-2-methyl-6-oxo-N-{[6-(trifluoromethyl)pyridin-2-yl]methyl}-1,6-dihydropyrimidine-5-carboxamide]
10.9 nM | Cc1nc(C2CCN(C(=O)Cc3c(F)cccc3F)CC2)c(C(=O)NCc2cccc(Cl)c2)c(=O)[nH]1 [Compound I4, N-(3-chlorobenzyl)-4-(1-(2-(2,6-difluorophenyl)acetyl)piperidin-4-yl)-2-methyl-6-oxo-1,6-dihydropyrimidine-5-carboxamide]

— patent US10035790B2, “RORγ modulators” (BRISTOL-MYERS SQUIBB COMPANY, priority 2012, dated 2018)
